{"source": "paper PMC12108457", "about": "“Trimethylamine N-Oxide (TMAO) Acts as Inhibitor of Endothelial Nitric Oxide Synthase (eNOS) and Hampers NO Production and Acetylcholine-Mediated Vasorelaxation in Rat Aortas” (Antioxidants, 2025)", "type_in_all_cases": "cell-based", "key": {"[1]": {"biological_target": "T1, endothelial nitric oxide synthase (eNOS) (Homo sapiens, UniProt P29474)", "T1 construct": "gene NOS3", "T1 sequence (P29474 2-1203)": "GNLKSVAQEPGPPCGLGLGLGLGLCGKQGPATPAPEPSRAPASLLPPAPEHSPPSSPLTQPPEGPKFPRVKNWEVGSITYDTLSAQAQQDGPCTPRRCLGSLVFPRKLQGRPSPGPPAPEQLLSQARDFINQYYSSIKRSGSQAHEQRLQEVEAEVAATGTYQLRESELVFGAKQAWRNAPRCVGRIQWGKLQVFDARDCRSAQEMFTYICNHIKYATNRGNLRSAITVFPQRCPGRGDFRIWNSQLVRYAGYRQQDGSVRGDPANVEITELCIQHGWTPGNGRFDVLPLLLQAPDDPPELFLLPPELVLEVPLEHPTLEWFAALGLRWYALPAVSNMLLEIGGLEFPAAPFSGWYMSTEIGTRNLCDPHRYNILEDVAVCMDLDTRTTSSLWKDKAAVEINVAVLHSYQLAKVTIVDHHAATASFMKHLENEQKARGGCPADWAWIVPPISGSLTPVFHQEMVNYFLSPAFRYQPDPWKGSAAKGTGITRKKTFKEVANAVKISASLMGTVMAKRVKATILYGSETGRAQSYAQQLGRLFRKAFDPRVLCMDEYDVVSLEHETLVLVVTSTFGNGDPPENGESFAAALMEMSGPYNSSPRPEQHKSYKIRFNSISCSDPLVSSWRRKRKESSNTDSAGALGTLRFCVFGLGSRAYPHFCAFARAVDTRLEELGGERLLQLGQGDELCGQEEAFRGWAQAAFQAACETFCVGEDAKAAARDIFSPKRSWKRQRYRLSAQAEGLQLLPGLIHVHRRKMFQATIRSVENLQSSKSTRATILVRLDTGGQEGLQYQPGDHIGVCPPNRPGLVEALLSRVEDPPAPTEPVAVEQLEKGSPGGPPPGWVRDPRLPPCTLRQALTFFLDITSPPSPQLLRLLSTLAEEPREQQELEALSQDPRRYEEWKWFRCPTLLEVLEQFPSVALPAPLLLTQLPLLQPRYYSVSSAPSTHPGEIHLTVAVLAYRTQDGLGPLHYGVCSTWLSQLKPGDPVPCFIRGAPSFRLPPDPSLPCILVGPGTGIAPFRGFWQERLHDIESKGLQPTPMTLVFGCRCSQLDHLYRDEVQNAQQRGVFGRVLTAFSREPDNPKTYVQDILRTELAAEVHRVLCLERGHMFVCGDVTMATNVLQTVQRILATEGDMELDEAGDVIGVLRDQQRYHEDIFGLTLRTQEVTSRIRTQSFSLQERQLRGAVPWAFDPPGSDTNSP", "assay": "NO (DAF-FM) and ROS production in HUVECs at […] L-NAME"}, "[2]": {"biological_target": "T1, endothelial nitric oxide synthase (eNOS)", "assay": "conversion of deuterated L-arginine to L-citrulline in HUVECs by MS; […] L-arginine rescues NO production"}, "[3]": {"biological_target": "T1, endothelial nitric oxide synthase (eNOS)", "assay": "NO production (DAF-FM) in HUVECs with L-arginine competition; deuterated L-arginine to L-citrulline conversion by MS"}}}
{"molecule": "COC(=O)[C@@H](N)CCCNC(N)=N[N+](=O)[O-]", "note": "[L-NAME]", "values": [{"measurement": "NO (DAF-FM) and ROS production in HUVECs at 1 mM L-NAME", "setting": "[1]", "value": "NO production is indeed eNOS-dependent, as proven by the eNOS inhibitor L-NAME, whose presence strongly abolishes NO production"}]}
{"molecule": "N=C(N)NCCC[C@H](N)C(=O)O", "note": "[L-arginine]", "values": [{"measurement": "conversion of deuterated L-arginine to L-citrulline in HUVECs by MS; 20 mM L-arg", "setting": "[2]", "value": "we measured the rate of L-arginine’s conversion to L-citrulline by using stable isotope labeling and mass spectrometry"}]}
{"molecule": "C[N+](C)(C)[O-]", "note": "[Trimethylamine N-oxide]", "values": [{"measurement": "EC50", "setting": "[3]", "value": "2.5 ± 0.3", "unit": "µM"}]}
